Values after ≈ are worked out from the molar mass of the structure shown.
Legend:
Assay in all cases: Antibacterial assay, microtitration MIC (Test A)
Assay type in all cases: cell-based
[1] = tested on: E. coli EC-2549; settings: Escherichia coli, EC2549, Gram Negative Bacteria; strain EC-2549; read-out: Minimum Inhibitory Concentrations E. coli EC-2549
Procedure: (§1) The compounds of the present invention were tested against an assortment of Gram-negative and Gram-positive organisms using standard microtitration techniques (Cohen et. al., Antimicrob., 1985;28:766; Heifetz, et. al., Antimicrob., 1974;6:124). The results of the evaluation are shown in Tables 1A and B, wherein “-” means no data.

[2] = tested on: M. catarrhalis BC-3531; settings: strain BC-3531; for MIC: Moraxella catarrhalis, BC3531, Gram Negative Bacteria, read-out: Minimum Inhibitory Concentrations M. catarrhalis BC-3531
Procedure: as §1

[3] = tested on: H. influenzae HI-3542; settings: Haemophilus influenzae, HI3542, Gram Negative Bacteria; strain HI-3542; read-out: Minimum Inhibitory Concentrations H. influenzae HI-3542
Procedure: as §1

[4] = tested on: S. pneumo SV-1; settings: Gram Positive Bacteria, strain SV-1; for MIC: read-out: Minimum Inhibitory Concentrations S. pneumo SV-1
Procedure: as §1

[5] = tested on: E. faecalis MGH-2; settings: strain MGH-2; for MIC: Enterococcus faecalis, MGH2, Gram Positive Bacteria, read-out: Minimum Inhibitory Concentrations E. faecalis MGH-2; for Minimum Inhibitory Concentrations E. faecalis MGH-2: Gram Positive Bacteria
Procedure: as §1

[6] = tested on: S pyogenes C203; settings: Gram Positive Bacteria, strain C203; for MIC: read-out: Minimum Inhibitory Concentrations S pyogenes C203
Procedure: as §1

SMILES | MIC [1] [µg/mL] | MIC [3] [µg/mL] | MIC [4] [µg/mL] | MIC [5] [µg/mL] | MIC [6] [µg/mL] | other results
O=C(O)c1cn(C2CC2)c2c(Cl)c(N3CCC(C(O)C(F)(F)F)C3)c(F)cc2c1=O (centres unmarked) | 0.06 (≈ 0.134 µM) | 0.004 (≈ 0.00891 µM) | – | – | – | MIC [2]: 0.004 µg/mL (≈ 0.00891 µM)
COc1c(N2C[C@@H]3C[C@@H](O)[C@@H](O)[C@@H]3C2)c(F)cc2c(=O)c(C(=O)O)cn(C3CC3)c12 | 0.25 (≈ 0.597 µM) | 0.015 (≈ 0.0358 µM) | – | – | – | MIC [2]: 0.06 µg/mL (≈ 0.143 µM)
COc1c(N2CCC(C(CO)CO)C2)c(F)cc2c(=O)c(C(=O)O)cn(C3CC3)c12 (centres unmarked) [drawing 307] | 0.06 (≈ 0.143 µM) | 0.008 (≈ 0.019 µM) | – | – | – | MIC [2]: 0.015 µg/mL (≈ 0.0357 µM)
Cc1c(N2CCC(CCO)C2)c(F)cc2c(=O)c(C(=O)O)cn(C3CC3)c12 (centres unmarked) [drawing 308] | 0.06 (≈ 0.16 µM) | 0.03 (≈ 0.0801 µM) | – | – | – | MIC [2]: 0.015 µg/mL (≈ 0.0401 µM)
COc1c(N2CCC(CO)C2)c(F)cc2c(=O)c(C(=O)O)cn(C3CC3)c12 (centres unmarked) [drawing 309] | 0.03 (≈ 0.0797 µM) | 0.002 (≈ 0.00531 µM) | – | – | – | MIC [2]: 0.004 µg/mL (≈ 0.0106 µM)
Cc1c(N2CCC(C(O)C(F)F)C2)c(F)cc2c(=O)c(C(=O)O)cn(C3CC3)c12 (centres unmarked) [drawing 310] | 0.06 (≈ 0.146 µM) | 0.008 (≈ 0.0195 µM) | – | – | – | MIC [2]: 0.008 µg/mL (≈ 0.0195 µM)
COc1c(N2CCC(C(O)C(F)F)C2)c(F)cc2c(=O)c(C(=O)O)cn(C3CC3)c12 (centres unmarked) [drawing 311] | 0.125 (≈ 0.293 µM) | 0.015 (≈ 0.0352 µM) | – | – | – | MIC [2]: 0.03 µg/mL (≈ 0.0704 µM)
O=C(O)c1cn(C2CC2)c2c(Cl)c(N3CCC(C(O)C(F)F)C3)c(F)cc2c1=O (centres unmarked) [drawing 312] | 0.06 (≈ 0.139 µM) | 0.004 (≈ 0.00928 µM) | – | – | – | MIC [2]: 0.008 µg/mL (≈ 0.0186 µM)
Nc1nc(-n2cc(C(=O)O)c(=O)c3cc(F)c(N4CCC(C(O)C(F)F)C4)c(Cl)c32)c(F)cc1F (centres unmarked) [drawing 313] | 0.25 (≈ 0.482 µM) | 0.008 (≈ 0.0154 µM) | – | – | – | MIC [2]: 0.015 µg/mL (≈ 0.0289 µM)
O=C(O)c1cn(C2CC2)c2nc(N3CCC(C(O)C(F)F)C3)c(F)cc2c1=O (centres unmarked) [drawing 314] | 0.125 (≈ 0.315 µM) | 0.008 (≈ 0.0201 µM) | – | – | – | MIC [2]: 0.016 µg/mL (≈ 0.0403 µM)
Cc1c(N2CCC(C(C)O)C2)c(F)cc2c(=O)c(C(=O)O)cn(C3CC3)c12 (centres unmarked) [drawing 315] | 0.06 (≈ 0.16 µM) | 0.002 (≈ 0.00534 µM) | – | – | – | Minimum Inhibitory Concentrations M. catarrhalis BC-3531 ([2]; Gram Negative Bacteria): 0.002 µg/mL
COc1c(N2CCC(C(C)O)C2)c(F)cc2c(=O)c(C(=O)O)cn(C3CC3)c12 (centres unmarked) [drawing 316] | 0.125 (≈ 0.32 µM) | 0.008 (≈ 0.0205 µM) | – | – | – | MIC [2]: 0.015 µg/mL (≈ 0.0384 µM)
COc1c(N2CCC(C(O)C3(CO)CC3)C2)c(F)cc2c(=O)c(C(=O)O)cn(C3CC3)c12 (centres unmarked) [drawing 320] | 0.25 (≈ 0.56 µM) | 0.03 (≈ 0.0672 µM) | – | – | – | –
Cc1c(N2CCC(C(C)O)C2)c(F)cc2c(=O)c(C(=O)O)cn(C3CC3)c12 (centres unmarked) [drawing 344] | – | – | 0.03 (≈ 0.0801 µM) | 0.06 (≈ 0.16 µM) | 0.06 (≈ 0.16 µM) | –
COc1c(N2CCC(C(C)O)C2)c(F)cc2c(=O)c(C(=O)O)cn(C3CC3)c12 (centres unmarked) [drawing 345] | – | – | 0.06 (≈ 0.154 µM) | 0.125 (≈ 0.32 µM) | 0.125 (≈ 0.32 µM) | –
Cc1c(N2CCC(C(C)O)C2)c(F)cc2c(=O)c(C(=O)O)cn(C3CC3)c12 (centres unmarked) [drawing 346] | – | – | – | – | – | Minimum Inhibitory Concentrations S. pneumo SV-1 [4]: 0.06 µg/mL; Minimum Inhibitory Concentrations E. faecalis MGH-2 [5]: 0.06 µg/mL; Minimum Inhibitory Concentrations S pyogenes C203 [6]: 0.06 µg/mL
COc1c(N2CCC(C(O)c3ccc(S(C)(=O)=O)o3)C2)c(F)cc2c(=O)c(C(=O)O)cn(C3CC3)c12 (centres unmarked) [drawing 348] | – | – | 0.5 (≈ 0.961 µM) | 0.5 (≈ 0.961 µM) | 0.5 (≈ 0.961 µM) | –
O=C(O)c1cn(C2CC2)c2c(Cl)c(N3CCC(C(O)C(F)F)C3)c(F)cc2c1=O (centres unmarked) [drawing 350] | – | – | 0.125 (≈ 0.29 µM) | 0.125 (≈ 0.29 µM) | 0.25 (≈ 0.58 µM) | –
Nc1nc(-n2cc(C(=O)O)c(=O)c3cc(F)c(N4CCC(C(O)C(F)F)C4)c(Cl)c32)c(F)cc1F (centres unmarked) [drawing 351] | – | – | 0.06 (≈ 0.116 µM) | 0.25 (≈ 0.482 µM) | 0.125 (≈ 0.241 µM) | –
O=C(O)c1cn(C2CC2)c2nc(N3CCC(C(O)C(F)F)C3)c(F)cc2c1=O (centres unmarked) [drawing 352] | – | – | 0.25 (≈ 0.629 µM) | 0.125 (≈ 0.315 µM) | 0.25 (≈ 0.629 µM) | –

SMILES | MIC [1] [µg/mL] | MIC [3] [µg/mL] | MIC [4] [µg/mL] | MIC [5] [µg/mL] | MIC [6] [µg/mL] | other results
COc1c(N2CCC(C(O)C3(CO)CC3)C2)c(F)cc2c(=O)c(C(=O)O)cn(C3CC3)c12 (centres unmarked) [drawing 353] | – | – | 0.125 (≈ 0.28 µM) | 0.25 (≈ 0.56 µM) | 0.25 (≈ 0.56 µM) | –
O=C(O)c1cn(C2CC2)c2c(Cl)c(N3CCC(C(O)C4(CO)CC4)C3)c(F)cc2c1=O (centres unmarked) [drawing 354] | – | – | 0.125 (≈ 0.277 µM) | 0.125 (≈ 0.277 µM) | 0.125 (≈ 0.277 µM) | –
Cc1c(N2CCC(C(O)CO)C2)c(F)cc2c(=O)c(C(=O)O)cn(C3CC3)c12 (centres unmarked) [drawing 356] | – | – | 1 (≈ 2.56 µM) | 2 (≈ 5.12 µM) | 1 (≈ 2.56 µM) | –
O=C(O)c1cn(C2CC2)c2c(Cl)c(N3CCC(C(O)CO)C3)c(F)cc2c1=O (centres unmarked) [drawing 357] | – | – | 0.06 (≈ 0.146 µM) | 0.06 (≈ 0.146 µM) | 0.03 (≈ 0.073 µM) | –
Nc1nc(-n2cc(C(=O)O)c(=O)c3cc(F)c(N4CCC(C(O)CO)C4)cc32)c(F)cc1F (centres unmarked) [drawing 358] | – | – | 0.06 (≈ 0.129 µM) | 0.125 (≈ 0.269 µM) | 0.125 (≈ 0.269 µM) | –
Nc1nc(-n2cc(C(=O)O)c(=O)c3cc(F)c(N4CCC(C(O)CO)C4)c(Cl)c32)c(F)cc1F (centres unmarked) [drawing 359] | – | – | 0.5 (≈ 1 µM) | 0.5 (≈ 1 µM) | 0.5 (≈ 1 µM) | –
COc1c(N2CCC(C(O)C(F)(F)F)C2)c(F)cc2c(=O)c(C(=O)O)cn(C3CC3)c12 (centres unmarked) [drawing 362] | – | – | 0.06 (≈ 0.135 µM) | 0.06 (≈ 0.135 µM) | 0.125 (≈ 0.281 µM) | –
Cc1c(N2CCC(C(O)C(F)(F)F)C2)c(F)cc2c(=O)c(C(=O)O)cn(C3CC3)c12 (centres unmarked) [drawing 364] | – | – | – | – | – | Minimum Inhibitory Concentrations S. pneumo SV-1 [4]: 0.125 µg/mL; Minimum Inhibitory Concentrations E. faecalis MGH-2 [5]: 0.06 µg/mL; Minimum Inhibitory Concentrations S pyogenes C203 [6]: 0.5 µg/mL
Nc1c(F)c(N2CCC(C(O)C(F)(F)F)C2)c(F)c2c1c(=O)c(C(=O)O)cn2C1CC1 (centres unmarked) [drawing 365] | – | – | 0.125 (≈ 0.279 µM) | 0.06 (≈ 0.134 µM) | 0.5 (≈ 1.12 µM) | –
Nc1nc(-n2cc(C(=O)O)c(=O)c3cc(F)c(N4CCC(C(O)C(F)(F)F)C4)c(Cl)c32)c(F)cc1F (centres unmarked) [drawing 366] | – | – | 0.5 (≈ 0.931 µM) | 0.5 (≈ 0.931 µM) | 1 (≈ 1.86 µM) | –
O=C(O)c1cn(C2CC2)c2nc(N3CCC(C(O)C(F)(F)F)C3)c(F)cc2c1=O (centres unmarked) [drawing 367] | – | – | 0.5 (≈ 1.2 µM) | 0.25 (≈ 0.602 µM) | 1 (≈ 2.41 µM) | –
Cc1c(N2CCC(C(O)(CO)C(F)(F)F)C2)c(F)cc2c(=O)c(C(=O)O)cn(C3CC3)c12 (centres unmarked) [drawing 371] | – | – | 0.25 (≈ 0.545 µM) | 0.25 (≈ 0.545 µM) | 0.25 (≈ 0.545 µM) | –
CC(O)(CO)C1CCN(c2c(F)cc3c(=O)c(C(=O)O)cn(C4CC4)c3c2Cl)C1 (centres unmarked) [drawing 372] | – | – | 0.25 (≈ 0.588 µM) | 0.25 (≈ 0.588 µM) | 0.25 (≈ 0.588 µM) | –
COc1c(N2CCC(C)(C(O)CC(F)(F)F)C2)c(F)cc2c(=O)c(C(=O)O)cn(C3CC3)c12 (centres unmarked) [drawing 376] | – | – | 0.125 (≈ 0.265 µM) | 0.125 (≈ 0.265 µM) | 0.25 (≈ 0.529 µM) | –
COc1c(N2CC(CO)C3(CC3)C2)c(F)cc2c(=O)c(C(=O)O)cn(C3CC3)c12 (centres unmarked) [drawing 429] | – | – | 0.03 (≈ 0.0745 µM) | 0.06 (≈ 0.149 µM) | 0.03 (≈ 0.0745 µM) | –
O=C(O)c1cn(C2CC2)c2c(Cl)c(N3CC(CO)C4(CC4)C3)c(F)cc2c1=O (centres unmarked) [drawing 430] | – | – | 0.03 (≈ 0.0737 µM) | 0.06 (≈ 0.147 µM) | 0.06 (≈ 0.147 µM) | –
COc1c(N2C[C@@H]3CC[C@@H](O)[C@@H]3C2)c(F)cc2c(=O)c(C(=O)O)cn(C3CC3)c12 [drawing 454] | – | – | 0.125 (≈ 0.311 µM) | 0.125 (≈ 0.311 µM) | 0.125 (≈ 0.311 µM) | –
Nc1nc(-n2cc(C(=O)O)c(=O)c3cc(F)c(N4C[C@@H]5CC[C@@H](O)[C@@H]5C4)c(Cl)c32)c(F)cc1F [drawing 455] | – | – | 0.125 (≈ 0.253 µM) | 0.25 (≈ 0.505 µM) | 0.25 (≈ 0.505 µM) | –
CC(=O)O[C@@H]1CC[C@H]2CN(c3c(F)cc4c(=O)c(C(=O)O)cn(-c5nc(N)c(F)cc5F)c4c3Cl)C[C@H]21 [drawing 456] | – | – | 0.125 (≈ 0.233 µM) | 0.5 (≈ 0.931 µM) | 0.5 (≈ 0.931 µM) | –

Source: US20050107423A1, “Quinolone antibacterial agents” (priority 2003, published 2005)
